The text below walks through data of patent US12303509B2, “Compounds for the treatment of BRAF-associated diseases and disorders” (Pfizer Inc., priority 2020, dated 2025).

pIC50: −log10 of the molar value. Structures can show the parent of a compound that is named as a salt.

Usually pIC50 stands for the negative decadic logarithm of the IC50, by convention in mol/L. A word on the Papp: it is the rate of passage across a membrane or cell layer, normalised by area and donor concentration. Low values mean poor permeation, high ones ready permeation. Broadly, the efflux ratio is the permeability from basolateral to apical divided by that in the opposite direction, in the common usage.

The target of data set [1] is full-length FLAG-tagged B-Raf(V600E) (Homo sapiens (Human), UniProt P15056, V600E). The experiment in a line: BRAF V600E enzyme assay (TR-FRET competitive displacement). In kind it is binding. As to conditions: averaged IC50; TR-FRET tracer displacement, 60 min. The gist of the method: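 Displacement of 50 nM Tracer 1710 from 5 nM full-length N-terminally FLAG-tagged B-Raf(V600E), detected by TR-FRET with 0.5 nM Eu anti-FLAG antibody, in 25 mM HEPES pH 7.4, 10 mM MgCl2, 2% DMSO; 60 min at ~22 °C. Compounds 11-point, 3-fold from 10 μM; IC50 from 4-parameter fit at 50 POC.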
full-length FLAG-tagged B-Raf(V600E), sequence (P15056 whole entry V600E): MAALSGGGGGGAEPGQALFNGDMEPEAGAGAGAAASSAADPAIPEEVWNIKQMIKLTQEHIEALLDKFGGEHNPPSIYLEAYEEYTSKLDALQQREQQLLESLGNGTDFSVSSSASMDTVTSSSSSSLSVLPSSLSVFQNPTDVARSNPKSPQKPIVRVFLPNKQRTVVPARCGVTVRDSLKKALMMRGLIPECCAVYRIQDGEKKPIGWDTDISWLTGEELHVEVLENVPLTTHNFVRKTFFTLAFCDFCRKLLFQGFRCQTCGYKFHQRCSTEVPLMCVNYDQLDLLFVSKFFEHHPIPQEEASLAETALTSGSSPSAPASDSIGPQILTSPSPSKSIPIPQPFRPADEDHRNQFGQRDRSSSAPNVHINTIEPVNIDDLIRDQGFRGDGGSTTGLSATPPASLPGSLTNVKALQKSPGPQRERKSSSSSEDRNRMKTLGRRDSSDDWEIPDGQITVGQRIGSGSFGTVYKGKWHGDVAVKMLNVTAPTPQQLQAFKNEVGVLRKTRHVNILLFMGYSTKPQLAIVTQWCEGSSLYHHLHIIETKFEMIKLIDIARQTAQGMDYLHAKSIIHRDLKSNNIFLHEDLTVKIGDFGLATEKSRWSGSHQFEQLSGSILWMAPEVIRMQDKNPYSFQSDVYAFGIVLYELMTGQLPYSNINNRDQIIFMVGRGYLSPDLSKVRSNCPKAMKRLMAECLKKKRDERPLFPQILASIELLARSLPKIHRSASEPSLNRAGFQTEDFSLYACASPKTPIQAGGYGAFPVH
For orientation: Time-resolved FRET reads energy transfer from a long-lived donor to a nearby acceptor.

A further data set relates to A375 cells. The experiment in a line: Cellular phospho-ERK inhibition assay in A375 cells. It counts as cell-based. As to conditions: Homo sapiens, A-375, A375 cells (head prints A357), 2 hours treatment, read-out: A357 cell IC50. The gist of the method: (§1)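 A375 (DMEM) or H1755 (RPMI) cells in 10% FBS treated 2 h at 37 °C with 9-point series, 66 pM–10 μM, 0.25% DMSO. Phospho-ERK1/2 (Thr202/Tyr204) measured by In Cell Western, normalised to GAPDH and to DMSO and 10 μM binimetinib controls; IC50 by 4-parameter fit.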

The test system of the next data set is H1755 cells. The data set is described as follows: Cellular phospho-ERK inhibition assay in H1755 cells. It counts as cell-based. As to conditions: Homo sapiens, NCI-H1755, 2 hours treatment, read-out: H1755 Cell IC50. The essentials: as §1
Data set [2] is described as follows: MDR1 LLC-PK1 and BCRP MDCKII permeability assay: permeability coefficient (Papp). In kind it is in vitro ADME. The source says:
(§2) Final organic concentration in the assay was 1%.

The next data set deals with P-gp (MDR1) (Homo sapiens (Human), UniProt P08183). The data set is described as follows: MDR1 LLC-PK1 permeability assay: efflux ratio. In kind it is in vitro ADME. As to conditions: pig.
P-gp (MDR1), sequence (P08183 whole entry, species assumed): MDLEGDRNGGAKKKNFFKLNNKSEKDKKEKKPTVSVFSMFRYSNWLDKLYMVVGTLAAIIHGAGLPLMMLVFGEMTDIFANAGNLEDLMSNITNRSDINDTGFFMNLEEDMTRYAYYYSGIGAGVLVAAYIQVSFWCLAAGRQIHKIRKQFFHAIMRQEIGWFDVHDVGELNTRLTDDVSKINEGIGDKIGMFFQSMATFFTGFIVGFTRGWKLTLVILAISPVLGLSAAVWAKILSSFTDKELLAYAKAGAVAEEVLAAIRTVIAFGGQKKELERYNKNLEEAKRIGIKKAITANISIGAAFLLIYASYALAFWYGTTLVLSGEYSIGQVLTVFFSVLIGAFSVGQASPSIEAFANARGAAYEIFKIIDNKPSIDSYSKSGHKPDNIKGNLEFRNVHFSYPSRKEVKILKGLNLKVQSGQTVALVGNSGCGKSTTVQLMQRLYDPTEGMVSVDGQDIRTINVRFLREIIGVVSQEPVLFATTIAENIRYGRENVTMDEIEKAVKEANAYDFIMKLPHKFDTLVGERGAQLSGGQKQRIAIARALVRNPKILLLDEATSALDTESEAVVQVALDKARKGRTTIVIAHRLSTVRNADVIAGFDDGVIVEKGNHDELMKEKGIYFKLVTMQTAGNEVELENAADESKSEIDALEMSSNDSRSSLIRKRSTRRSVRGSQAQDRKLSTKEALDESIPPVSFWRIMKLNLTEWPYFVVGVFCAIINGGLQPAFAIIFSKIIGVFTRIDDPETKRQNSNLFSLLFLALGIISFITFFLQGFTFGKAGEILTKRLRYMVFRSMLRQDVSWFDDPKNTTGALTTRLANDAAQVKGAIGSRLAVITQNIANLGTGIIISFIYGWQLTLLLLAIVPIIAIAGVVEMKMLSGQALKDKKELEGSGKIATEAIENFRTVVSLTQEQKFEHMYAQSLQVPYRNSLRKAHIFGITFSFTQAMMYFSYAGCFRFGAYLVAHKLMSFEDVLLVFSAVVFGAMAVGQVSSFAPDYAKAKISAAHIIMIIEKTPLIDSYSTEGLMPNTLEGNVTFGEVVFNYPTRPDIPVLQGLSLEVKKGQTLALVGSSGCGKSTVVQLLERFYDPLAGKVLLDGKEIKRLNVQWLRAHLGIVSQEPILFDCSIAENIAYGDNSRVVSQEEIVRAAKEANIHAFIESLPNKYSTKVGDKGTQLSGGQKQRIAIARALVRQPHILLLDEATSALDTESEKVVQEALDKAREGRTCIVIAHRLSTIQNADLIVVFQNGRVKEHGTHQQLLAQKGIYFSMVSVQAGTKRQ
Description: as §2

Another data set has as its target BCRP (Homo sapiens (Human), UniProt Q9UNQ0). The experiment in a line: BCRP MDCKII permeability assay: efflux ratio. In kind it is in vitro ADME. As to conditions: dog.

BCRP, sequence (Q9UNQ0 whole entry): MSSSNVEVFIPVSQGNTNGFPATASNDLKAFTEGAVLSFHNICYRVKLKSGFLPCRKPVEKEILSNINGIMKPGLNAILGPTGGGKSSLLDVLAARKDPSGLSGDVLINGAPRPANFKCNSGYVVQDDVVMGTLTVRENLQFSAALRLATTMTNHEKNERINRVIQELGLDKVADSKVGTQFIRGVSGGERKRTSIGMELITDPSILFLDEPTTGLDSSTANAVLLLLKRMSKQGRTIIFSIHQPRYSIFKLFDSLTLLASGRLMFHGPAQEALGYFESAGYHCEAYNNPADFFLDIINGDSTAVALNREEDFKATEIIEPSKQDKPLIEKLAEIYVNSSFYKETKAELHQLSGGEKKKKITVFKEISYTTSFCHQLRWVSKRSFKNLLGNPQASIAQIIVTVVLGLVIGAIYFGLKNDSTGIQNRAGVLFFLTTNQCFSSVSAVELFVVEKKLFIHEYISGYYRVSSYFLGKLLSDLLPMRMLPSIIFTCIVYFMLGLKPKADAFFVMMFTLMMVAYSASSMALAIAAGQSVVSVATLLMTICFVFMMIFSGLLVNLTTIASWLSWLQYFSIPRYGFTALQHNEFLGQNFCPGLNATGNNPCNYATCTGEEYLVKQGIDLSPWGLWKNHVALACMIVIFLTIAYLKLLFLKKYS

In the case of `Cc1c(Nc2cc(Cl)cc(NS(=O)(=O)N3CC[C@@H](F)C3)c2F)ccc2ncn(C)c(=O)c12` [Example 103, (R)-N-(5-chloro-3-((3,5-dimethyl-4-oxo-3,4-dihydroquinazolin-6-yl)amino)-2-fluorophenyl)-3-fluoropyrrolidine-1-sulfonamide], the pIC50 in data set [1] was 8.30; with A375 cells, 6.93; in the data set with H1755 cells, 6.44. For the same compound, the Papp at 2 h, 1 µM in data set [2] came out at 25 ×10⁻⁶ cm/s. In addition, the efflux ratio at 2 h, 1 µM was 3.2 on P-gp (MDR1) and 3.5 on BCRP.
Regarding `Cc1c(Nc2cc(Cl)cc(NS(=O)(=O)N3CCCC3)c2F)ccc2ncn(C)c(=O)c12` [Example 104, N-(5-chloro-3-((3,5-dimethyl-4-oxo-3,4-dihydroquinazolin-6-yl)amino)-2-fluorophenyl)pyrrolidine-1-sulfonamide], the pIC50 in data set [1] was 8.30; in the data set with A375 cells it was 6.88; in the data set with H1755 cells it was 6.51. Besides, the Papp at 2 h, 1 µM in data set [2] came out at 22 ×10⁻⁶ cm/s. The efflux ratio at 2 h, 1 µM at P-gp (MDR1) was found to be 1.2; on BCRP, 1.3.
For `CC[C@@H]1CCN(S(=O)(=O)Nc2ccc(F)c(Nc3ccc4ncn(C)c(=O)c4c3Cl)c2Cl)C1` [Example 106, (R)-N-(2-chloro-3-((5-chloro-3-methyl-4-oxo-3,4-dihydroquinazolin-6-yl)amino)-4-fluorophenyl)-3-ethylpyrrolidine-1-sulfonamide trifluoroacetate], the negative logarithm of the IC50 (pIC50) in data set [1] was 7.92; with A375 cells it was 6.88; in the data set on H1755 cells, 6.37. This compound also yielded a Papp at 2 h, 1 µM in data set [2] of 22 ×10⁻⁶ cm/s. Moreover, the efflux ratio at 2 h, 1 µM is 1.2 on P-gp (MDR1) and 0.8 on BCRP.
For the compound `Cn1cnc2ccc(Oc3c(F)ccc(NS(=O)(=O)N4CC[C@H](F)C4)c3Cl)c(Cl)c2c1=O` [Example 107, (S)-N-(2-chloro-3-((5-chloro-3-methyl-4-oxo-3,4-dihydroquinazolin-6-yl)oxy)-4-fluorophenyl)-3-fluoropyrrolidine-1-sulfonamide], the pIC50 was 9.00 in data set [1], 8.10 with A375 cells and 6.94 with H1755 cells. The same compound showed a Papp at 2 h, 1 µM in data set [2] of 30 ×10⁻⁶ cm/s. In addition, the efflux ratio at 2 h, 1 µM came to 2.7 at P-gp (MDR1) and 1.9 on BCRP.
On to `Cn1cnc2ccc(Oc3c(F)ccc(NS(=O)(=O)N4CC5CC5C4)c3Cl)c(Cl)c2c1=O` (stereo not drawn) [Example 108, N-(2-chloro-3-((5-chloro-3-methyl-4-oxo-3,4-dihydroquinazolin-6-yl)oxy)-4-fluorophenyl)-3-azabicyclo[3.1.0]hexane-3-sulfonamide], for which the pIC50 in data set [1] is 9.00; in the data set on A375 cells, 7.85; in the data set with H1755 cells, 5.80. This compound registered a Papp at 2 h, 1 µM in data set [2] of 25 ×10⁻⁶ cm/s. In addition, the efflux ratio at 2 h, 1 µM on P-gp (MDR1) amounted to 1.2; at BCRP, 0.8.
`CCN(C)S(=O)(=O)Nc1ccc(F)c(Oc2ccc3ncn(C)c(=O)c3c2Cl)c1Cl` [Example 109, N-(2-chloro-3-((5-chloro-3-methyl-4-oxo-3,4-dihydroquinazolin-6-yl)oxy)-4-fluorophenyl)-(N-ethyl-N-methyl)-sulfamide]: the pIC50 in data set [1] was 8.15; in the data set on A375 cells it was 7.89; in the data set with H1755 cells, 6.57. Also, the Papp at 2 h, 1 µM in data set [2] worked out at 34 ×10⁻⁶ cm/s. The efflux ratio at 2 h, 1 µM at P-gp (MDR1) is 1.1; at BCRP, 0.8.
`CN(C)S(=O)(=O)Nc1ccc(F)c(Oc2ccc3ncn(C)c(=O)c3c2Cl)c1Cl` [Example 110, N-(2-chloro-3-((5-chloro-3-methyl-4-oxo-3,4-dihydroquinazolin-6-yl)oxy)-4-fluorophenyl)-(N,N-dimethyl)-sulfamide]: the pIC50 in data set [1] is 8.10; in the data set on A375 cells, 8.22; in the data set with H1755 cells, 7.32. The Papp at 2 h, 1 µM in data set [2] was 34 ×10⁻⁶ cm/s. The efflux ratio at 2 h, 1 µM on P-gp (MDR1) is 1.5; on BCRP it was 1.4.
On to `Cc1c(Nc2c(F)ccc(NS(=O)(=O)N3CCCC3)c2F)ccc2ncn(C)c(=O)c12` [Example 113, N-(3-((3,5-dimethyl-4-oxo-3,4-dihydroquinazolin-6-yl)amino)-2,4-difluorophenyl)pyrrolidine-1-sulfonamide trifluoroacetate], for which the results for the pIC50 (in data set [1]; in the data set on A375 cells; in the data set on H1755 cells) were 7.42, 7.40 and 6.45, respectively. Also, the Papp at 2 h, 1 µM in data set [2] turned out to be 18 ×10⁻⁶ cm/s. Moreover, the efflux ratio at 2 h, 1 µM was 1.3 at P-gp (MDR1) and 1.9 at BCRP.
For `Cc1c(Nc2c(F)ccc(NS(=O)(=O)N3CC[C@@H](F)C3)c2F)ccc2ncn(C)c(=O)c12` [Example 114, (R)-N-(3-((3,5-dimethyl-4-oxo-3,4-dihydroquinazolin-6-yl)amino)-2,4-difluorophenyl)-3-fluoropyrrolidine-1-sulfonamide trifluoroacetate], the pIC50 in data set [1] is 7.80; with A375 cells, 7.44; in the data set with H1755 cells it was 6.76. Besides, in data set [2], the Papp at 2 h, 1 µM came to 31 ×10⁻⁶ cm/s. The efflux ratio at 2 h, 1 µM at P-gp (MDR1) came out at 2.2; on BCRP, 5.2.
For the compound `COCC1CN(S(=O)(=O)Nc2ccc(F)c(Oc3ccc4ncn(C)c(=O)c4c3F)c2Cl)C1` [Example 121, N-(2-chloro-4-fluoro-3-((5-fluoro-3-methyl-4-oxo-3,4-dihydroquinazolin-6-yl)oxy)phenyl)-3-(methoxymethyl)azetidine-1-sulfonamide], the negative logarithm of the IC50 (pIC50) in data set [1] is 8.05; with A375 cells, 8.15; in the data set on H1755 cells, 7.74. In data set [2], this compound returned a Papp at 2 h, 1 µM of 35 ×10⁻⁶ cm/s. Moreover, the efflux ratio at 2 h, 1 µM stood at 1.9 on P-gp (MDR1) and 6 at BCRP.
As to `Cc1c(Nc2c(F)ccc(NS(=O)(=O)N3CCC3)c2Cl)ccc2ncn(C)c(=O)c12` [Example 124, N-(2-chloro-3-((3,5-dimethyl-4-oxo-3,4-dihydroquinazolin-6-yl)amino)-4-fluorophenyl)azetidine-1-sulfonamide trifluoroacetate], the results for the pIC50 (in data set [1]; in the data set on A375 cells; in the data set on H1755 cells) were 7.77, 7.68 and 5.00, respectively. In data set [2], this compound had a Papp at 2 h, 1 µM of 43 ×10⁻⁶ cm/s. The efflux ratio at 2 h, 1 µM at P-gp (MDR1) was found to be 1.1; at BCRP, 1.3.
On to `Cc1c(Nc2c(F)ccc(NS(=O)(=O)N3CC(F)C3)c2Cl)ccc2ncn(C)c(=O)c12` [Example 125, N-(2-chloro-3-((3,5-dimethyl-4-oxo-3,4-dihydroquinazolin-6-yl)amino)-4-fluorophenyl)-3-fluoroazetidine-1-sulfonamide], for which the pIC50 in data set [1] is 8.30; in the data set on A375 cells, 7.74; with H1755 cells, 6.00. Further, in data set [2], the Papp at 2 h, 1 µM was determined as 37 ×10⁻⁶ cm/s. For the same compound, the efflux ratio at 2 h, 1 µM at P-gp (MDR1) turned out to be 1.2; on BCRP, 1.6.
As for `COC1CN(S(=O)(=O)Nc2ccc(F)c(Nc3ccc4ncn(C)c(=O)c4c3C)c2Cl)C1` [Example 128, N-(2-chloro-3-((3,5-dimethyl-4-oxo-3,4-dihydroquinazolin-6-yl)amino)-4-fluorophenyl)-3-methoxyazetidine-1-sulfonamide trifluoroacetate], the pIC50 is 7.80 in data set [1], 7.60 in the data set with A375 cells and 6.89 in the data set with H1755 cells. This compound also registered an apparent permeability coefficient (Papp) at 2 h, 1 µM in data set [2] of 49 ×10⁻⁶ cm/s. In addition, the efflux ratio at 2 h, 1 µM was 1.5 at P-gp (MDR1) and 1.3 at BCRP.
Regarding `Cc1c(Nc2c(F)ccc(NS(=O)(=O)N3CC(F)(F)C3)c2Cl)ccc2ncn(C)c(=O)c12` [Example 134, N-(2-chloro-3-((3,5-dimethyl-4-oxo-3,4-dihydroquinazolin-6-yl)amino)-4-fluorophenyl)-3,3-difluoroazetidine-1-sulfonamide], the pIC50 in data set [1] is 8.15; in the data set with A375 cells, 7.17; with H1755 cells, 6.49. Also, the Papp at 2 h, 1 µM in data set [2] came to 33 ×10⁻⁶ cm/s. Besides, the efflux ratio at 2 h, 1 µM on P-gp (MDR1) worked out at 1.4; on BCRP, 6.4.
Regarding `Cn1cnc2ccc(Nc3c(F)ccc(NS(=O)(=O)N4CC(F)(F)C4)c3Cl)c(Cl)c2c1=O` [Example 135, N-(2-chloro-3-((5-chloro-3-methyl-4-oxo-3,4-dihydroquinazolin-6-yl)amino)-4-fluorophenyl)-3,3-difluoroazetidine-1-sulfonamide], the values for the pIC50 (in data set [1]; in the data set with A375 cells; in the data set with H1755 cells) were 8.52, 7.66 and 6.72, respectively. This compound came in with a Papp at 2 h, 1 µM in data set [2] of 29 ×10⁻⁶ cm/s. For the same compound, the efflux ratio at 2 h, 1 µM at P-gp (MDR1) was found to be 1.9; on BCRP, 5.1.
As to `Cn1cnc2ccc(Nc3c(F)ccc(NS(=O)(=O)N4CC(F)(F)C4)c3Cl)c(F)c2c1=O` [Example 136, N-(2-chloro-4-fluoro-3-((5-fluoro-3-methyl-4-oxo-3,4-dihydroquinazolin-6-yl)amino)phenyl)-3,3-difluoroazetidine-1-sulfonamide], the pIC50 is 8.22 in data set [1], 8.15 with A375 cells and 7.05 in the data set with H1755 cells. The Papp at 2 h, 1 µM in data set [2] turned out to be 24 ×10⁻⁶ cm/s. The efflux ratio at 2 h, 1 µM on P-gp (MDR1) is 3; on BCRP, 18.3.
